In brackets after ≈: the same amount, converted by molar mass.
Tests used:
Type in all cases: cell-based
[1] = cytotoxicity, standard procedure (Mosmann)
Description: (§1) The IC₅₀ values (µg/ml) of MLR and cytotoxicity for rapamycin were 7 x 10⁻³ and >3.0, respectively when tested by standard procedures for MLR (D. P. Dubey et al., Manual of Clinical Laboratory Immunology, 3rd Ed., pp. 847-858, 1986) and for cytotoxicity (T. Mosmann, J., J. Immunol. Methods, 65, 55-63, 1983).

[2] = system: mixed lymphocyte reaction (MLR); assay: mixed lymphocyte reaction (MLR), standard procedure (Dubey et al.); settings: read-out: IC₅₀ values of MLR
Description: as §1

[3] = system: Candida albicans; assay: antifungal activity, agar plate dilution method with paper disk; settings: 40 µg/disk, 8 mm diameter paper disk, agar medium for neomycin assay (Difco)
Procedure: Antifungal activity was determined by an agar plate dilution method using a fungal culture, Candida albicans. The diameter of inhibition zone of rapamycin was 25 mm when tested at 40 µg/disk (8 mm diameter paper disk, Advantic) on an commercially available agar medium for neomycin assay (Difco).

Which results are given for `CO[C@H]1C[C@@H]2CC[C@@H](C)[C@@](O)(O2)C(=O)C(=O)N2CCCC[C@H]2C(=O)O[C@H]([C@H](C)C[C@@H]2CC[C@@H](O)[C@H](OC)C2)CC(=O)[C@H](C)/C=C(\C)[C@@H](O)[C@@H](OC)C(=O)[C@H](C)C[C@H](C)/C=C/C=C/C=C/1C` [rapamycin]?
CC50 [1]: > 3000 ng/mL; IC50 [2]: 7 ng/mL (≈ 7.66 nM); zone of inhibition at 40 µg/disc [3]: 25 mm
